Experimental data as given in ChEMBL document CHEMBL4814072, “Chemoenzymatic synthesis of 2,6-disubstituted tetrahydropyrans with high σ1 receptor affinity, antitumor and analgesic activity” (Eur J Med Chem, 2021).
Values belong to the molecule of their own block, whether it stands above or below them. Active and inactive are the calls of the source. No cut-off for these calls is given here.

Assays:
[1] = molecular target: Delta-type opioid receptor (Homo sapiens) (UniProt P41143); test: Binding affinity to human delta opioid receptor
[2] = molecular target: Sodium-dependent serotonin transporter (Homo sapiens) (UniProt P31645); test: Inhibition of serotonin transporter (unknown origin)
DU-145 = test: Antiproliferative activity against androgen-negative human DU145 cells assessed as inhibition of cell growth at 10 uM measured after 72 hrs by SRB assay; format: functional, cell-based
Cytochrome P450 1A2 = molecular target: T1, Cytochrome P450 1A2 (Homo sapiens, UniProt P05177); test: Inhibition of CYP1A2 (unknown origin) at 1 uM; format: ADME
T1 sequence (P05177 whole entry): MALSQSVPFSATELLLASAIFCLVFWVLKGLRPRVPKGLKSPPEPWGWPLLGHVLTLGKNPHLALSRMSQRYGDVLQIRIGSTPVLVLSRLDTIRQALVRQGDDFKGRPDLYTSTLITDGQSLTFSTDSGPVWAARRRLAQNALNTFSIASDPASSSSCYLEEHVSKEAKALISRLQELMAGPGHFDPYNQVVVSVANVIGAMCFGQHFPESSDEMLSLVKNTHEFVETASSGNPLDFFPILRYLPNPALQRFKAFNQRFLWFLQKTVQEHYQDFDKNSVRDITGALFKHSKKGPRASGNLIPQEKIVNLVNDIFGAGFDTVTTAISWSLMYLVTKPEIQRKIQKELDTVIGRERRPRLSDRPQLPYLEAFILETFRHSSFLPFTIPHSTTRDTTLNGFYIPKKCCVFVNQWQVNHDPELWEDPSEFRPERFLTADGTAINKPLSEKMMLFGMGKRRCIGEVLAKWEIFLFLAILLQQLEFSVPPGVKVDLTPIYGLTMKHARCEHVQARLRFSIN

[3] = molecular target: Kappa-type opioid receptor (Homo sapiens) (UniProt P41145); test: Binding affinity to human kappa opioid receptor
Cytochrome P450 3A4 = Cytochrome P450 3A4 (Homo sapiens, UniProt P08684); test: Inhibition of CYP3A4 (unknown origin) at 1 uM; format: ADME
[4] = molecular target: T2, Alpha-2A adrenergic receptor (Homo sapiens) (UniProt P08913); test: Binding affinity to human alpha2A adrenergic receptor
T2 sequence (whole entry): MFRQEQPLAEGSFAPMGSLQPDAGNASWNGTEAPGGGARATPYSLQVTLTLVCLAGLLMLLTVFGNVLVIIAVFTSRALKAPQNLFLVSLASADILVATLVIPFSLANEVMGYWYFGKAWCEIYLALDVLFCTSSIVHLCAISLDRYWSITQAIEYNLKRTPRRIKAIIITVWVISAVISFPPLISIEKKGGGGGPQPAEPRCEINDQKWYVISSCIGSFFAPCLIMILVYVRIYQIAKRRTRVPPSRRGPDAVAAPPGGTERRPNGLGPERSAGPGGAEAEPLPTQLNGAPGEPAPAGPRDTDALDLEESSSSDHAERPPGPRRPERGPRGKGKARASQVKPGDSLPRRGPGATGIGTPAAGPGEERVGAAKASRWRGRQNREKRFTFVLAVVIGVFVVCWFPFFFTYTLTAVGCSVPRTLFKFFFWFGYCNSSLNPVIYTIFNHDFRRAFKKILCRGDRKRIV

Cytochrome P450 2C19 = Cytochrome P450 2C19 (Homo sapiens, UniProt P33261); test: Inhibition of CYP2C19 (unknown origin) at 1 uM; format: ADME
[5] = molecular target: Sodium-dependent dopamine transporter (Homo sapiens) (UniProt Q01959); test: Inhibition of dopamine transporter (unknown origin)
[6] = molecular target: 5-hydroxytryptamine receptor 2B (Homo sapiens) (UniProt P41595); test: Binding affinity to human 5HT2B receptor
[7] = molecular target: Sigma non-opioid intracellular receptor 1 (Cavia porcellus, UniProt Q60492)
[8] = molecular target: T3, 5-hydroxytryptamine receptor 1A (Homo sapiens) (UniProt P08908); test: Binding affinity to human 5HT1A receptor
T3 sequence (whole entry): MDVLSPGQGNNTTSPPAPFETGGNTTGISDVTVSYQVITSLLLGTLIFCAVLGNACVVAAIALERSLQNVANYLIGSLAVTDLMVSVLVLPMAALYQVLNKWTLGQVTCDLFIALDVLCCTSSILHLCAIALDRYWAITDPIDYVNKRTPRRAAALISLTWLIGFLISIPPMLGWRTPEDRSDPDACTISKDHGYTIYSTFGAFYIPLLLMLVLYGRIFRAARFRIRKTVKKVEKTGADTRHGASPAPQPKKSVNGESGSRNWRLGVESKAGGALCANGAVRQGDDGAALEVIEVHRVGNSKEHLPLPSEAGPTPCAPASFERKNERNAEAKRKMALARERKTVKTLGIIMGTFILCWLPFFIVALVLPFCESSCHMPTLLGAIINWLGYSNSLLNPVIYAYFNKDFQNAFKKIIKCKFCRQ

Cytochrome P450 2C9 = Cytochrome P450 2C9 (Homo sapiens, UniProt P11712); test: Inhibition of CYP2C9 (unknown origin) at 1 uM; format: ADME
Mus musculus = test: Antiallodynic activity in CD-1 mouse assessed as analgesia at 40 mg/kg, sc administered 30 mins prior to capsaicin stimulation and measured after 15 mins by von Frey test (reference value: 97.3 %); format: functional; settings: time 45 min, 0.75 h
[9] = molecular target: Adrenergic receptor alpha-1 (Homo sapiens) (UniProt P35348+P25100+P35368); test: Binding affinity to human alpha1 adrenergic receptor; format: protein assay
[10] = molecular target: Sodium-dependent noradrenaline transporter (Homo sapiens) (UniProt P23975); test: Inhibition of noradrenaline transporter (unknown origin)
[11] = molecular target: Mu-type opioid receptor (Homo sapiens) (UniProt P35372); test: Binding affinity to human mu opioid receptor
[12] = molecular target: T4, Sigma intracellular receptor 2 (Rattus norvegicus, UniProt Q5U3Y7); test: Displacement of [3H]-di-o-tolylguanidine from sigma2 receptor in rat liver membrane by solid scintillation counting method; format: cell membranes
T4 sequence (Q5U3Y7 whole entry): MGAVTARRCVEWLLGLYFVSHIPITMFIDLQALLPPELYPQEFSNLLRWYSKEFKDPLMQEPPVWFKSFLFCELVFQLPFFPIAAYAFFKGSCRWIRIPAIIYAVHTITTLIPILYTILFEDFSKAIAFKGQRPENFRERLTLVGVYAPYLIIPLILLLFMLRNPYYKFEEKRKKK

[13] = molecular target: Sigma non-opioid intracellular receptor 1 (Cavia porcellus) (UniProt Q60492); test: Displacement of [3H]-(+)-pentazocine from sigma1 receptor in guinea pig brain membrane at 1 uM measured after 120 mins by solid scintillation counting method; format: cell membranes
[14] = molecular target: Sigma intracellular receptor 2 (Rattus norvegicus) (UniProt Q5U3Y7); test: Displacement of [3H]-di-o-tolylguanidine from sigma2 receptor in rat liver membrane at 1 uM by solid scintillation counting method; format: cell membranes
[15] = molecular target: Glutamate [NMDA] receptor (Homo sapiens) (UniProt Q05586+Q12879+Q13224+O15399+O60391+Q14957+Q8TCU5); test: Displacement of [3H]-(+)-MK801 from PCP binding site of NMDA receptor (unknown origin); format: protein-complex assay; settings: dose 1.0 µM
[16] = Selectivity ratio of Ki for sigma2 receptor in rat liver membrane to Ki for sigma1 receptor in guinea pig brain membrane; format: cell membranes

Chain of Sodium-dependent noradrenaline transporter (Homo sapiens) (P23975 whole entry): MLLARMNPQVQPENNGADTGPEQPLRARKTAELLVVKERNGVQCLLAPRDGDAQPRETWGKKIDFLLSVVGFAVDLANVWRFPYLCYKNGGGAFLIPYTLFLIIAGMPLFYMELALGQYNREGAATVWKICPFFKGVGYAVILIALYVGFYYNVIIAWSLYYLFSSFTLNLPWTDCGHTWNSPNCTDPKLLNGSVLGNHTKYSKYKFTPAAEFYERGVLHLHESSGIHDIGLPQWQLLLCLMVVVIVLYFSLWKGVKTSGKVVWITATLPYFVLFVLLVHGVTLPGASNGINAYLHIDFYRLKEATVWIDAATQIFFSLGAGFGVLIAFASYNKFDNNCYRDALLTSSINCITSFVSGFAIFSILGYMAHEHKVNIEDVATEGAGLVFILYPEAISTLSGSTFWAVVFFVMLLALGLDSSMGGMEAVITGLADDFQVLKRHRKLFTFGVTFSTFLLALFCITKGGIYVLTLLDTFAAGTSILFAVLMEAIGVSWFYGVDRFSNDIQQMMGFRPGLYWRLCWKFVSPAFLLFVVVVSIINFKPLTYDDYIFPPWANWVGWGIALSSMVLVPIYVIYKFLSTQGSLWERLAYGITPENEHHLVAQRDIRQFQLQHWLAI
Chain of Sodium-dependent dopamine transporter (Homo sapiens) (Q01959 whole entry): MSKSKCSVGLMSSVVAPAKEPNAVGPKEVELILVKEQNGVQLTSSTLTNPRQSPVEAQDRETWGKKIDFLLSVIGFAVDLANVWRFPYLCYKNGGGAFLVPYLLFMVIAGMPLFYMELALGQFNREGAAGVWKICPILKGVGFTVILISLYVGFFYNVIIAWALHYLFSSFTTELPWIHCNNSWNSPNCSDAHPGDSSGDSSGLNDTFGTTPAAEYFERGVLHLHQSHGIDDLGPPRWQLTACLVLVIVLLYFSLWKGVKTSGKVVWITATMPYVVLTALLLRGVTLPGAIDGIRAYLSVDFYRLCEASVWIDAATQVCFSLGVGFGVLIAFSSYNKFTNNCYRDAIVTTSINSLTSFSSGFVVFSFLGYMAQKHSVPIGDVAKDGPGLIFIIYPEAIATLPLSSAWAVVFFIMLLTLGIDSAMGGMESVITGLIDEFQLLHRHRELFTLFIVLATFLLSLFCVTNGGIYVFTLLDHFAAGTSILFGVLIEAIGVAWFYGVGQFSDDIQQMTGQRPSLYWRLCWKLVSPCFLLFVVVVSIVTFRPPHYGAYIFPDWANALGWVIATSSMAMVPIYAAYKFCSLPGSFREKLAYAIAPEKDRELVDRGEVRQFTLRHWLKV
Chain of Kappa-type opioid receptor (Homo sapiens) (P41145 whole entry): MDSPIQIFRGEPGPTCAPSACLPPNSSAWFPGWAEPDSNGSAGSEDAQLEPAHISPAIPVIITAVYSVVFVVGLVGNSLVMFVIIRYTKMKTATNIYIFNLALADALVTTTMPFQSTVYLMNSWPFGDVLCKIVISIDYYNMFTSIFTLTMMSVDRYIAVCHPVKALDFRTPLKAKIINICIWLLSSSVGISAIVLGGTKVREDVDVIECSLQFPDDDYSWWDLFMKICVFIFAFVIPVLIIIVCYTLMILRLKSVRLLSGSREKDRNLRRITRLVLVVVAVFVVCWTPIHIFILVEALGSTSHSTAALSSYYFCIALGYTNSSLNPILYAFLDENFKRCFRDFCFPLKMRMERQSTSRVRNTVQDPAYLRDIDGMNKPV
Chain of Mu-type opioid receptor (Homo sapiens) (P35372 whole entry): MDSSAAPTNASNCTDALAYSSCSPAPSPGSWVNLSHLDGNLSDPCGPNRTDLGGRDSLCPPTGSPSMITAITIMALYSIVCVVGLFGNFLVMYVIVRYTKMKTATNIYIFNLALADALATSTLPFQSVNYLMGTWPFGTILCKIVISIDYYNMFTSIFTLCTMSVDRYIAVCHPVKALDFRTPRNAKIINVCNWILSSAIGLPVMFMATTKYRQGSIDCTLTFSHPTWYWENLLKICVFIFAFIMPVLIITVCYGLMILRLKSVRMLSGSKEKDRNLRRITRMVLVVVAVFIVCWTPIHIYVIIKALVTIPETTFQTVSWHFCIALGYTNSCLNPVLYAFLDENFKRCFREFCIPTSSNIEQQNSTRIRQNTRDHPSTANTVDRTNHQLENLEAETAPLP
Chain of Sodium-dependent serotonin transporter (Homo sapiens) (P31645 whole entry, looked up): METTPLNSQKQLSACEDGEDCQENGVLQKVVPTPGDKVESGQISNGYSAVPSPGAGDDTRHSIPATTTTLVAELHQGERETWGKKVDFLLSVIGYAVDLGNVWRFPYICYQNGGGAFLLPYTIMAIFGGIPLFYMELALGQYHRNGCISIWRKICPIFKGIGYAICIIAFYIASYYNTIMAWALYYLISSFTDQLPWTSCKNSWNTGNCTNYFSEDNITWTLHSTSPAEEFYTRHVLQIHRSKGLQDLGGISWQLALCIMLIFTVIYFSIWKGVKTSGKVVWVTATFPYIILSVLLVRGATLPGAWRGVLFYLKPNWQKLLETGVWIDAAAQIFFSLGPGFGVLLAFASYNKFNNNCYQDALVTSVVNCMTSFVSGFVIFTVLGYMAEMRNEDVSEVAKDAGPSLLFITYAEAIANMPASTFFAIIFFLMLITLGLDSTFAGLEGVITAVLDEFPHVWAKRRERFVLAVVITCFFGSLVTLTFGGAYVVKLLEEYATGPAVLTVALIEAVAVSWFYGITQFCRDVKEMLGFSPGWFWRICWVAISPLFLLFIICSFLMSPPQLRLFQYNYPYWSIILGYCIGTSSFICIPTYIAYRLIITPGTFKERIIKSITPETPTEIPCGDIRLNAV
Chain of Cytochrome P450 2C9 (P11712 whole entry): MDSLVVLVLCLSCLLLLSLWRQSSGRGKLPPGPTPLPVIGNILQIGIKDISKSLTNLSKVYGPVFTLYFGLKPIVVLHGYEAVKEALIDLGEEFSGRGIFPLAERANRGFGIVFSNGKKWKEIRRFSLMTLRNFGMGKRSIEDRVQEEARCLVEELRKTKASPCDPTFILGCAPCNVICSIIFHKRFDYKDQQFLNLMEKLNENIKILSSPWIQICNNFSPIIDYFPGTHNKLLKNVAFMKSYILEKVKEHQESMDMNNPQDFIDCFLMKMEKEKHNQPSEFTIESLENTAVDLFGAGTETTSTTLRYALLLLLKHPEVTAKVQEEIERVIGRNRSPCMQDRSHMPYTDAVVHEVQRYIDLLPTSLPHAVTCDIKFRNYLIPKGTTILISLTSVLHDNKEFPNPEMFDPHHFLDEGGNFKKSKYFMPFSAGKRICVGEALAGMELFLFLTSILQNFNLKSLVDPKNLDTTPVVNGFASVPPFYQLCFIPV
Chain of Cytochrome P450 2C19 (P33261 whole entry): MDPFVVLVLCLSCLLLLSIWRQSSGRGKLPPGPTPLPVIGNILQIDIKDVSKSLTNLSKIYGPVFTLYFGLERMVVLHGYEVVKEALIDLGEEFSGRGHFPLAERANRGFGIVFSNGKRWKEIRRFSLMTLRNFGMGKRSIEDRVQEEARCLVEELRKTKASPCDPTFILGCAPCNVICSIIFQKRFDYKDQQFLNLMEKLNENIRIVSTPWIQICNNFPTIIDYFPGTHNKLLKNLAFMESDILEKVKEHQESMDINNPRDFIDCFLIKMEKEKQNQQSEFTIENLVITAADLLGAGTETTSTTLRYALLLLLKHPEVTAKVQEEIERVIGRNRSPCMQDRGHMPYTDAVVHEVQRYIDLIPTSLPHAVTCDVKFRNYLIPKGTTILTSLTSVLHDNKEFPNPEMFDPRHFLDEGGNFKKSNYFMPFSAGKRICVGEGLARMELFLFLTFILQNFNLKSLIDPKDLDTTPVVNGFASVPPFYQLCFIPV
Chain of Sigma non-opioid intracellular receptor 1 (Q60492 whole entry): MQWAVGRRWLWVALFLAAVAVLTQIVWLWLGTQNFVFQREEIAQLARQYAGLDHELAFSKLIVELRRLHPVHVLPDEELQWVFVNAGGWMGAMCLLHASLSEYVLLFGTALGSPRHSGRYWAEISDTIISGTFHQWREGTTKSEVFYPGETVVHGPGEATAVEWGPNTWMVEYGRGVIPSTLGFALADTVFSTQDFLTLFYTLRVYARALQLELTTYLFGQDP
Chain of Delta-type opioid receptor (Homo sapiens) (P41143 whole entry): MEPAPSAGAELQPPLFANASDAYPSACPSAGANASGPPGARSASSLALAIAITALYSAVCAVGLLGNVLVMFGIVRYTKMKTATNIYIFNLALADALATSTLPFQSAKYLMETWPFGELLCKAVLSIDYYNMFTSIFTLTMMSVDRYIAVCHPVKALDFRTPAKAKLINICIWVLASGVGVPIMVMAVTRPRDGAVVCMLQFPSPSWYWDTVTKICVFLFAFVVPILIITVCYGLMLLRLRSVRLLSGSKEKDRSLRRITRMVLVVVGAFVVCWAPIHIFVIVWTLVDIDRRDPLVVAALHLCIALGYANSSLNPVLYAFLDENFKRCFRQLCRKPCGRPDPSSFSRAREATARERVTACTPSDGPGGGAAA
Chain of 5-hydroxytryptamine receptor 2B (Homo sapiens) (P41595 whole entry): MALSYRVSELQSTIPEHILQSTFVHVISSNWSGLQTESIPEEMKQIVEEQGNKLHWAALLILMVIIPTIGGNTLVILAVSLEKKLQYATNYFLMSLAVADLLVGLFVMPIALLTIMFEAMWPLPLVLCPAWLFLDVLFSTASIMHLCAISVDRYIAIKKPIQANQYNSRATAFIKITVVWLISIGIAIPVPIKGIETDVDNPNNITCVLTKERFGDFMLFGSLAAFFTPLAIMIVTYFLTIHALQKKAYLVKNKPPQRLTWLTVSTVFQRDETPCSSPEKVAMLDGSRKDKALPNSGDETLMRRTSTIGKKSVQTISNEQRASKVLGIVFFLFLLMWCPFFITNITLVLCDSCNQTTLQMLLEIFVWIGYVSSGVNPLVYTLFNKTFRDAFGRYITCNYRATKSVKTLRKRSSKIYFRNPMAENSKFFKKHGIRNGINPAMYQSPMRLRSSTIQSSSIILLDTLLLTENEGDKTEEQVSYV
Chain of Sigma non-opioid intracellular receptor 1 (Cavia porcellus) (Q60492 whole entry): as the sequence (Q60492 whole entry) above

Structure (SMILES): c1ccc(CNCC[C@H]2CCC[C@@H](c3ccccc3)O2)cc1
Activity [1]: inactive
inhibition [2]: inactive
Activity (DU-145): Active
inhibition (INH) (Cytochrome P450 1A2): Not Active
Activity [3]: inactive
inhibition (INH) (Cytochrome P450 3A4): Not Active
Activity [4]: inactive
inhibition (INH) (Cytochrome P450 2C19): Not Active
inhibition [5]: inactive
Activity [6]: inactive
Ki [7]: 5.4 nM
Activity [8]: inactive
inhibition (INH) (Cytochrome P450 2C9): Not Active
Activity (Mus musculus): 55%
Activity [9]: inactive
inhibition [10]: inactive
Activity [11]: inactive
Ki [12]: 426 nM

inhibition [13]: 4%
inhibition [14]: 10%
inhibition [15]: 43%
Structure (SMILES): NCC[C@H]1CCC[C@@H](c2ccccc2)O1

Ki [7]: 29 nM
inhibition [15]: 42%
Ki [12]: 377 nM
Structure (SMILES): c1ccc(CCCCNCC[C@H]2CCC[C@@H](c3ccccc3)O2)cc1

Ki [7]: 57 nM
Ki [12]: 161 nM
Structure (SMILES): c1ccc([C@@H]2CCC[C@H](CCN3CCN(c4ccccc4)CC3)O2)cc1

Structure (SMILES): c1ccc([C@H]2CCC[C@@H](CCNCC3CCCCC3)O2)cc1
Activity [1]: inactive
inhibition [2]: inactive
Activity (DU-145): Active
inhibition (INH) (Cytochrome P450 1A2): Not Active
Activity [3]: inactive
inhibition (INH) (Cytochrome P450 3A4): Not Active
Activity [4]: inactive
inhibition (INH) (Cytochrome P450 2C19): Not Active
inhibition [5]: inactive
Activity [6]: inactive
Ki [7]: 0.95 nM
Activity [8]: inactive
inhibition (INH) (Cytochrome P450 2C9): Not Active
Activity (Mus musculus): 67%
Activity [9]: inactive
inhibition [10]: inactive
Activity [11]: inactive
inhibition [15]: 33%
Ki [12]: 57 nM

Structure (SMILES): Cc1cc(OCCN2CCOCC2)nn1-c1ccc2ccccc2c1
Activity (Mus musculus): 97%

Ki [7]: 21 nM
inhibition [15]: 7%
Ki [12]: 131 nM
Structure (SMILES): c1ccc([C@H]2CCC[C@@H](CCN3CCN(c4ccccc4)CC3)O2)cc1

inhibition [13]: 9%
inhibition [14]: 5%
inhibition [15]: 14%
Structure (SMILES): NCC[C@@H]1CCC[C@H](c2ccccc2)O1

Ki [7]: 31 nM
Ki [12]: 170 nM
Structure (SMILES): c1ccc([C@@H]2CCC[C@H](CCN3CCCC3)O2)cc1

Ki [7]: 465 nM
inhibition [15]: 37%
Ki [12]: 2300 nM
Structure (SMILES): CN(C)CC[C@@H]1CCC[C@H](c2ccccc2)O1

Structure (SMILES): c1ccc([C@@H]2CCC[C@H](CCNCC3CCCCC3)O2)cc1
Activity [1]: inactive
inhibition [2]: inactive
Activity (DU-145): Active
inhibition (INH) (Cytochrome P450 1A2): Not Active
Activity [3]: inactive
inhibition (INH) (Cytochrome P450 3A4): Not Active
Activity [4]: inactive
inhibition (INH) (Cytochrome P450 2C19): Not Active
inhibition [5]: inactive
Activity [6]: inactive
Ki [7]: 2.4 nM
Activity [8]: inactive
inhibition (INH) (Cytochrome P450 2C9): Not Active
Activity (Mus musculus): 53%
Activity [9]: inactive
inhibition [10]: inactive
Activity [11]: inactive
inhibition [15]: 7%
Ki [12]: 36 nM

Ki [7]: 15 nM
inhibition [15]: 43%
Ki [12]: 234 nM
Structure (SMILES): c1ccc(CCCCNCC[C@@H]2CCC[C@H](c3ccccc3)O2)cc1

Ki [7]: 217 nM
inhibition [15]: 31%
Ki [12]: 4000 nM
Structure (SMILES): CN(C)CC[C@H]1CCC[C@@H](c2ccccc2)O1

Structure (SMILES): c1ccc(CNCC[C@@H]2CCC[C@H](c3ccccc3)O2)cc1
Activity [1]: inactive
inhibition [2]: inactive
Activity (DU-145): Active
inhibition (INH) (Cytochrome P450 1A2): Not Active
Ratio Ki [16]: 236
Activity [3]: inactive
inhibition (INH) (Cytochrome P450 3A4): Not Active
Activity [4]: inactive
inhibition (INH) (Cytochrome P450 2C19): Not Active
inhibition [5]: inactive
Activity [6]: inactive
Ki [7]: 1.6 nM
Activity [8]: inactive
inhibition (INH) (Cytochrome P450 2C9): Not Active
Activity (Mus musculus): 21%
Activity [9]: inactive
inhibition [10]: inactive
Activity [11]: inactive
Ki [12]: 378 nM

Ki [7]: 60 nM
Ki [12]: 115 nM
Structure (SMILES): c1ccc([C@H]2CCC[C@@H](CCN3CCCC3)O2)cc1
